Source: ChEMBL document CHEMBL1148870, “Novel inhibitors of VEGF receptors-1 and -2 based on azole-5-carboxamide templates” (Bioorg Med Chem Lett, 2007)

Columns and labels:
Homo sapiens [1] = species: Homo sapiens; experiment: Inhibition of PKA at 10 uM; parameters: scale not given: the % may be the effect or the level left
[2] = target: Hepatocyte growth factor receptor (Homo sapiens) (UniProt P08581); experiment: Inhibition of cMet at 10 uM; parameters: scale not given: the % may be the effect or the level left
[3] = target: Epidermal growth factor receptor (Homo sapiens) (UniProt P00533); experiment: Inhibition of ErbB1 at 10 uM; parameters: scale not given: the % may be the effect or the level left
[4] = target: T1, Vascular endothelial growth factor receptor 2 (Homo sapiens, UniProt P35968); experiment: Inhibition of VEGFR2 assessed as inhibition of phosphorylation in presence of 2 uM ATP by HTRF assay; assay type: functional
Homo sapiens [5] = species: Homo sapiens; experiment: Inhibition of Cdk1 at 10 uM; parameters: scale not given: the % may be the effect or the level left
[6] = target: RAC-alpha serine/threonine-protein kinase (Homo sapiens) (UniProt P31749); experiment: Inhibition of PKB/Akt at 10 uM; parameters: scale not given: the % may be the effect or the level left
Homo sapiens [7] = species: Homo sapiens; experiment: Inhibition of InR at 10 uM; parameters: scale not given: the % may be the effect or the level left
[8] = target: T1, Vascular endothelial growth factor receptor 2; experiment: Inhibition of VEGFR2 assessed as inhibition of phosphorylation in human 293 cells by cell-based ELISA; assay type: functional, HEK293
[9] = target: Vascular endothelial growth factor receptor 1 (Homo sapiens, UniProt P17948); experiment: Inhibition of VEGFR1 assessed as inhibition of phosphorylation in presence of 2 uM ATP by HTRF assay; assay type: functional
[10] = target: Vascular endothelial growth factor receptor 3 (Homo sapiens) (UniProt P35916); experiment: Inhibition of Flt4 at 10 uM; parameters: scale not given: the % may be the effect or the level left
[11] = target: Receptor-type tyrosine-protein kinase FLT3 (Homo sapiens) (UniProt P36888); experiment: Inhibition of Flt3 at 10 uM; parameters: scale not given: the % may be the effect or the level left
[12] = target: Glycogen synthase kinase-3 beta (Homo sapiens) (UniProt P49841); experiment: Inhibition of GSK3-beta at 10 uM; parameters: scale not given: the % may be the effect or the level left
[13] = target: Receptor tyrosine-protein kinase erbB-2 (Homo sapiens) (UniProt P04626); experiment: Inhibition of ErbB2/Her2 at 10 uM; parameters: scale not given: the % may be the effect or the level left
Homo sapiens [14] = species: Homo sapiens; experiment: Inhibition of bcr-Abl at 10 uM; parameters: scale not given: the % may be the effect or the level left
[15] = target: Insulin-like growth factor 1 receptor (Homo sapiens) (UniProt P08069); experiment: Inhibition of IGF1R at 10 uM; parameters: scale not given: the % may be the effect or the level left
[16] = Passive diffusion assessed as intrinsic permeability across Caco-2 cell membrane; assay type: ADME, cell-based; settings: human, read-out: permeability (converted)
[17] = target: Cyclin-dependent kinase 2 (Homo sapiens) (UniProt P24941); experiment: Inhibition of Cdk2 at 10 uM; parameters: scale not given: the % may be the effect or the level left
Caco-2 = experiment: Passive diffusion assessed as absorption potential across Caco-2 cell membrane; assay type: ADME, cell-based; settings: human
[18] = target: Fibroblast growth factor receptor 1 (Homo sapiens) (UniProt P11362); experiment: Inhibition of FGFR1 at 10 uM; parameters: scale not given: the % may be the effect or the level left
[19] = target: RAF proto-oncogene serine/threonine-protein kinase (Homo sapiens) (UniProt P04049); experiment: Inhibition of Raf1 at 10 uM; parameters: scale not given: the % may be the effect or the level left
[20] = target: T1, Vascular endothelial growth factor receptor 2; experiment: Displacement of [32P]ATP from human VEGFR2 after 45 mins

Sequence of Hepatocyte growth factor receptor (Homo sapiens) (P08581 whole entry): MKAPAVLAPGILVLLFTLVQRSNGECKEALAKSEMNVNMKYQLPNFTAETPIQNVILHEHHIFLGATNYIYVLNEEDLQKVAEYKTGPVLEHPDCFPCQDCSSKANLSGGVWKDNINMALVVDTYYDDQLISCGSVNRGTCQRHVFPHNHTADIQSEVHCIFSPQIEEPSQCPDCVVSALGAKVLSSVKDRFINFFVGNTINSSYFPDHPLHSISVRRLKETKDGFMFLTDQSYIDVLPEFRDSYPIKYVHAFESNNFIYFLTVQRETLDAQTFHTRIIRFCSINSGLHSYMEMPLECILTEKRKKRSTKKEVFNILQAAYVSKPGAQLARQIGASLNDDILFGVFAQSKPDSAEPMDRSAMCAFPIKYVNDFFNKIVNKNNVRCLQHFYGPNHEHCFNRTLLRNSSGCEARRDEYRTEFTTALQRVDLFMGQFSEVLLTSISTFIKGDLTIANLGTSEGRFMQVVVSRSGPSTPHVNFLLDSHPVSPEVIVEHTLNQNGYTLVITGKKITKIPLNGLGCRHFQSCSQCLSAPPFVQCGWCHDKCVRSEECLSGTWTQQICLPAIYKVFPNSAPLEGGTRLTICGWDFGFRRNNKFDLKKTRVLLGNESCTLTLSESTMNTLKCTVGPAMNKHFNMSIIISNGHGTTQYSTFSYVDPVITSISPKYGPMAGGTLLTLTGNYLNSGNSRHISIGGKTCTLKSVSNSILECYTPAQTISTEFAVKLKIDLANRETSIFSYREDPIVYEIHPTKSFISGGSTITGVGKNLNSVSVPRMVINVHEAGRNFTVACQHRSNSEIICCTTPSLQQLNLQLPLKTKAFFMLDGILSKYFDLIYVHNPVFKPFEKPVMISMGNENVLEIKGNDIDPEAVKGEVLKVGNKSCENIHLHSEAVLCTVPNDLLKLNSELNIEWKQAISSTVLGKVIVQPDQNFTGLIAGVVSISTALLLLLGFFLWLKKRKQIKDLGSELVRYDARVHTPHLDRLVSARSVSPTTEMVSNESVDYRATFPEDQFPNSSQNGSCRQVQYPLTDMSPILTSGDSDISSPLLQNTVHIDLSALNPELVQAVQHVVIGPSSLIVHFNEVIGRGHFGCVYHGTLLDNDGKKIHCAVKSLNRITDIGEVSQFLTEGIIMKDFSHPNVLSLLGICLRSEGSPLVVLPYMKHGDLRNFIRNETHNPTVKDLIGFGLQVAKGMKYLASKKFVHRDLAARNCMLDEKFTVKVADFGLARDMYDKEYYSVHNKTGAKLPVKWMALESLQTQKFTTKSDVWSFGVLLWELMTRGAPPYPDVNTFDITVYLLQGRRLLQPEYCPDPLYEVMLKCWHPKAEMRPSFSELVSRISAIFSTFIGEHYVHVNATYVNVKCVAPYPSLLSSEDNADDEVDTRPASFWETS
Sequence of Vascular endothelial growth factor receptor 3 (Homo sapiens) (P35916 whole entry): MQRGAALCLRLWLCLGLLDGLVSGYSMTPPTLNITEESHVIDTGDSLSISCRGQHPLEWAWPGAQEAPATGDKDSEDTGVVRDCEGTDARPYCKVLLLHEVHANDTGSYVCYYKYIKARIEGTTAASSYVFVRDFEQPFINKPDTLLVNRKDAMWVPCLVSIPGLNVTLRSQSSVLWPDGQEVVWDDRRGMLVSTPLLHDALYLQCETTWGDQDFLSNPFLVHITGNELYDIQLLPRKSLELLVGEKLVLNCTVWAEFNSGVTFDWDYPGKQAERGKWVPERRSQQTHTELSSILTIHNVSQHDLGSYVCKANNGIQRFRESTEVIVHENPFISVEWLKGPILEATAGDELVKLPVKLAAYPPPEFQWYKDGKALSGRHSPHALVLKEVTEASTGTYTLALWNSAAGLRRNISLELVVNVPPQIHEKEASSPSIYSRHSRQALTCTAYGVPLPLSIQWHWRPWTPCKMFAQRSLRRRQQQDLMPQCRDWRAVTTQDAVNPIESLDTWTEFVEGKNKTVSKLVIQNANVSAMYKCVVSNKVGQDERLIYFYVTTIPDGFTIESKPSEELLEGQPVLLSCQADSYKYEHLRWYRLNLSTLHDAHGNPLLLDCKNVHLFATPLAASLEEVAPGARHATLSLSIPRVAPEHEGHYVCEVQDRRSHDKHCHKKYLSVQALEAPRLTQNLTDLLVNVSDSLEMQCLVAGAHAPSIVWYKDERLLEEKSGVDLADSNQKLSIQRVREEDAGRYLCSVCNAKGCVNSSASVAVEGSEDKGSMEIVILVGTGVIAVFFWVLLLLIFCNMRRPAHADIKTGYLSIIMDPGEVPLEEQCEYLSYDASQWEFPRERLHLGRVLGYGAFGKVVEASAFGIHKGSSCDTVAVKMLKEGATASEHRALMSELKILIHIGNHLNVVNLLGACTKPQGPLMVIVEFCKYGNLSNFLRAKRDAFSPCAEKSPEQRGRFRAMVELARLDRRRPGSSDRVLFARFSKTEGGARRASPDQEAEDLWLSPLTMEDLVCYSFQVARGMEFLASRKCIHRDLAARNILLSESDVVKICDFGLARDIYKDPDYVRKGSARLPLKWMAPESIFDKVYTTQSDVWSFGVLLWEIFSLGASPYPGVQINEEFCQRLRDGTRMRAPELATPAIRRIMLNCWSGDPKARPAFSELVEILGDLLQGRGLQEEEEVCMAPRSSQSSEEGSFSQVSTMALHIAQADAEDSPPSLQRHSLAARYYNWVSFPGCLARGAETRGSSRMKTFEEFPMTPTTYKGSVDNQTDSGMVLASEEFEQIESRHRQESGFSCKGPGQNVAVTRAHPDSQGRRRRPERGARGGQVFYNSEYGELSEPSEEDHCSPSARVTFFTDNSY
Sequence of RAC-alpha serine/threonine-protein kinase (Homo sapiens) (P31749 whole entry): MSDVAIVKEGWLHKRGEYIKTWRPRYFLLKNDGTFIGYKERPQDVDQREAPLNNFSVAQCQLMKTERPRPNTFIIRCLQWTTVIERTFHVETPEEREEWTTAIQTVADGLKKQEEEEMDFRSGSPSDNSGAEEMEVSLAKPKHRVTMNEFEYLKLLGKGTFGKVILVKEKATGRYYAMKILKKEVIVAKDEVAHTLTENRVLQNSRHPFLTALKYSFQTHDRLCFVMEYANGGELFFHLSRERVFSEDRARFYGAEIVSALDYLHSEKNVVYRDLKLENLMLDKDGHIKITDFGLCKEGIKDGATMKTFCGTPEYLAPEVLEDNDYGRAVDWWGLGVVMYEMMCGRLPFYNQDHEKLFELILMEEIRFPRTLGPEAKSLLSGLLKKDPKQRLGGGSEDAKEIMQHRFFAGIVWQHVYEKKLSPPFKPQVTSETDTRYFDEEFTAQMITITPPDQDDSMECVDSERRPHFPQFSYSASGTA
Sequence of Fibroblast growth factor receptor 1 (Homo sapiens) (P11362 22-822 limits assumed): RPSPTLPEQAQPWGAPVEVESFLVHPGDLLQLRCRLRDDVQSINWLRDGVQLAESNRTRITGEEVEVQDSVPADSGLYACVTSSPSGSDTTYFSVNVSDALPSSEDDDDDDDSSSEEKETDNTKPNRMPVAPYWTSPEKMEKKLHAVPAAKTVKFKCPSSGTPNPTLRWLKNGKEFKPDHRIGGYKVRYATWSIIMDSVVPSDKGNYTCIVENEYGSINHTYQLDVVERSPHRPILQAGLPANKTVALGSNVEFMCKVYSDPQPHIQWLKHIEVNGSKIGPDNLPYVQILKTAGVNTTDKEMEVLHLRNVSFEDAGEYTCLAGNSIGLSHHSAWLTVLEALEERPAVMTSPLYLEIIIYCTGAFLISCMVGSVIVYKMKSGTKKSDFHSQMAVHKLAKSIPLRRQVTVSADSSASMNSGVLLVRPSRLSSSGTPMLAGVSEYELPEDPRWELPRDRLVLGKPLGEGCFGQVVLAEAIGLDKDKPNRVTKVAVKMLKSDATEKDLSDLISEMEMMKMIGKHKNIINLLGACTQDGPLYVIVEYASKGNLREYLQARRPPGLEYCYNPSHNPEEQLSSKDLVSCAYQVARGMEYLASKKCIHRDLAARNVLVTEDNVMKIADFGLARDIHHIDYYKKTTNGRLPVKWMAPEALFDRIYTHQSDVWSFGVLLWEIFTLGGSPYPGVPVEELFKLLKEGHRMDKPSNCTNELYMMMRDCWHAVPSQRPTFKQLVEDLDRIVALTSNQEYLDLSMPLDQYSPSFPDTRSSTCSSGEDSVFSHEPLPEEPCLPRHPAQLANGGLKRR
Sequence of Glycogen synthase kinase-3 beta (Homo sapiens) (P49841 whole entry, looked up): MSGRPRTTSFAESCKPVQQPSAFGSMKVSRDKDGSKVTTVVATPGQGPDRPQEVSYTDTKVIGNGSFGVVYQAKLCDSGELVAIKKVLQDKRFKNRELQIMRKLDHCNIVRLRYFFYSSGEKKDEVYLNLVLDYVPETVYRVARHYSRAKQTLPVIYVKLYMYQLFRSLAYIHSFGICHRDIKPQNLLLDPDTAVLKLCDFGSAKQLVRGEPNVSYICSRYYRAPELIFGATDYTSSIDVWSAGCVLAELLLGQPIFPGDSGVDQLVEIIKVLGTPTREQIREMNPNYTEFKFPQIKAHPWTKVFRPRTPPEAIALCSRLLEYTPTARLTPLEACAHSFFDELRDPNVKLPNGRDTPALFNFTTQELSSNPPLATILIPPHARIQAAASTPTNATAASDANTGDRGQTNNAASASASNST
Sequence of RAF proto-oncogene serine/threonine-protein kinase (Homo sapiens) (P04049 whole entry): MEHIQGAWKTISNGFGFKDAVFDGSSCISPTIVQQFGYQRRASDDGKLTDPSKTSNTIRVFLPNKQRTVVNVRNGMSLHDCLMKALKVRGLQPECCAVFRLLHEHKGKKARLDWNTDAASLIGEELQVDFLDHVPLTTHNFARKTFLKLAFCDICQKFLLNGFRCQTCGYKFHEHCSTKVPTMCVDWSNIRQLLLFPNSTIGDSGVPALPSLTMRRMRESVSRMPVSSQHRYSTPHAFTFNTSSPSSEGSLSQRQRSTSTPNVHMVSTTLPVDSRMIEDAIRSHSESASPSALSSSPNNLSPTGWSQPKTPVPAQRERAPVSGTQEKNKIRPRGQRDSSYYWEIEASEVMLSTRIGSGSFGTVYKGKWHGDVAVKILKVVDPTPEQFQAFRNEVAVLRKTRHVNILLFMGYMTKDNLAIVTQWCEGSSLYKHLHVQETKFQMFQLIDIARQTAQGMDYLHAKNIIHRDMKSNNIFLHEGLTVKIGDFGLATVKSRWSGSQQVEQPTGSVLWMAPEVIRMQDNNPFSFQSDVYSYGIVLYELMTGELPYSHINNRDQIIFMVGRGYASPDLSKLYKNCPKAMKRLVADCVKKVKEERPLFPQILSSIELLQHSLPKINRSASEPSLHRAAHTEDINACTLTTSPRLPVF

Row | Activity (Homo sapiens [1]) [%] | Activity [2] [%] | Activity [3] [%] | IC50 [4] [nM] | Activity (Homo sapiens [5]) [%] | Activity [6] [%] | Activity (Homo sapiens [7]) [%] | IC50 [8] [nM] | IC50 [9] [nM] | Activity [10] [%] | Activity [11] [%] | Activity [12] [%] | Activity [13] [%] | Activity (Homo sapiens [14]) [%] | Activity [15] [%] | Papp [16] [×10⁻⁶ cm/s] | Activity [17] [%] | Activity (Caco-2) | Activity [18] [%] | Activity [19] [%] | Compound | other results
1 | > 30 | > 30 | < 30 | 69 | > 30 | > 30 | > 30 | 48 | 380 | > 30 | > 30 | > 30 | > 30 | > 30 | > 30 | 6.42 | > 30 | Active | > 30 | > 30 | O=C(Nc1ccc(C(F)(F)F)cc1)c1ccnn1CCc1ccncc1 | 
2 | > 30 | > 30 | < 30 | 180 | > 30 | > 30 | > 30 | 95 | 980 | > 30 | > 30 | > 30 | > 30 | > 30 | > 30 | 4.6 | > 30 | Active | > 30 | > 30 | O=C(Nc1ccc(C(F)(F)F)c(Cl)c1)c1ccnn1CCc1ccncc1 | Ki [20]: 160 nM; Ki [4]: 170 nM
3 | > 30 | > 30 | < 30 | 74 | > 30 | > 30 | > 30 | 53 | 440 | > 30 | > 30 | > 30 | > 30 | > 30 | > 30 | 8.18 | > 30 | Active | > 30 | > 30 | CC(C)c1ccc(NC(=O)c2ccnn2CCc2ccncc2)cc1 | 
4 | > 30 | > 30 | < 30 | > 10000 | > 30 | > 30 | > 30 | > 10000 | > 10000 | > 30 | > 30 | > 30 | > 30 | > 30 | > 30 |  | > 30 |  | > 30 | > 30 | O=C(Nc1ccc(Cl)cc1)c1ccnn1CCc1ccc(F)c(F)c1 | 
5 | > 30 | > 30 | < 30 | > 10000 | > 30 | > 30 | > 30 | > 10000 | > 10000 | > 30 | > 30 | > 30 | > 30 | > 30 | > 30 |  | > 30 |  | > 30 | > 30 | CC(C)(C)c1ccc(NC(=O)c2nnnn2CCc2ccncc2)cc1 | 
6 | > 30 | > 30 | < 30 | > 10000 | > 30 | > 30 | > 30 | > 10000 | > 10000 | > 30 | > 30 | > 30 | > 30 | > 30 | > 30 |  | > 30 |  | > 30 | > 30 | COc1ccc(CCn2nccc2C(=O)Nc2ccc(Cl)cc2)cc1OC | 
7 | > 30 | > 30 | < 30 | 780 | > 30 | > 30 | > 30 | 2540 | 1220 | > 30 | > 30 | > 30 | > 30 | > 30 | > 30 |  | > 30 |  | > 30 | > 30 | Cc1cc(C(=O)Nc2ccc(Cl)cc2)n(CCc2ccncc2)n1 | 

Continued, molecule first:

Row | Compound | Activity (Homo sapiens [1]) [%] | Activity [2] [%] | Activity [3] [%] | IC50 [4] [nM] | Activity (Homo sapiens [5]) [%] | Activity [6] [%] | Activity (Homo sapiens [7]) [%] | IC50 [8] [nM] | IC50 [9] [nM] | Activity [10] [%] | Activity [11] [%] | Activity [12] [%] | Activity [13] [%] | Activity (Homo sapiens [14]) [%] | Activity [15] [%] | Papp [16] [×10⁻⁶ cm/s] | Activity [17] [%] | Activity (Caco-2) | Activity [18] [%] | Activity [19] [%] | other results
8 | CC(C)(C)c1ccc(NC(=O)c2ccnn2CCc2ccncc2)cc1 | > 30 | > 30 | < 30 | 42 | > 30 | > 30 | > 30 | 33 | 590 | > 30 | > 30 | > 30 | > 30 | > 30 | > 30 | 7.43 | > 30 | Active | > 30 | > 30 | Ki [20]: 140 nM; Ki [4]: 130 nM
9 | CCc1ccc(NC(=O)c2ccnn2CCc2ccncc2)cc1 | > 30 | > 30 | < 30 | 120 | > 30 | > 30 | > 30 | 86 | 220 | > 30 | > 30 | > 30 | > 30 | > 30 | > 30 | 9.7 | > 30 | Active | > 30 | > 30 | 
10 | O=C(Nc1ccc(Cl)cc1)c1nc2ccccc2n1CCc1ccncc1 | > 30 | > 30 | < 30 | > 10000 | > 30 | > 30 | > 30 | > 10000 | > 10000 | > 30 | > 30 | > 30 | > 30 | > 30 | > 30 |  | > 30 |  | > 30 | > 30 | 
11 | O=C(Nc1ccc(OC(F)(F)F)cc1)c1nnnn1CCc1ccncc1 | > 30 | > 30 | < 30 | 2650 | > 30 | > 30 | > 30 | 2970 | 3880 | > 30 | > 30 | > 30 | > 30 | > 30 | > 30 |  | > 30 |  | > 30 | > 30 | 
12 | O=C(Nc1ccc(-c2ccccc2)cc1)c1ccnn1CCc1ccncc1 | > 30 | > 30 | < 30 | 950 | > 30 | > 30 | > 30 | 1560 | 2250 | > 30 | > 30 | > 30 | > 30 | > 30 | > 30 |  | > 30 |  | > 30 | > 30 | 
13 | O=C(Nc1ccc(C(F)(F)F)cc1)c1nnnn1CCc1ccncc1 | > 30 | > 30 | < 30 | 850 | > 30 | > 30 | > 30 | 2960 | 1080 | > 30 | > 30 | > 30 | > 30 | > 30 | > 30 |  | > 30 |  | > 30 | > 30 | 
14 | Cc1nn(CCc2ccncc2)c(C(=O)Nc2ccc(Cl)cc2)c1C | > 30 | > 30 | < 30 | > 10000 | > 30 | > 30 | > 30 | > 10000 | > 10000 | > 30 | > 30 | > 30 | > 30 | > 30 | > 30 |  | > 30 |  | > 30 | > 30 | 
15 | O=C(Nc1ccc(Cl)cc1)c1ccnn1CCc1ccccn1 | > 30 | > 30 | < 30 | > 10000 | > 30 | > 30 | > 30 | > 10000 | > 10000 | > 30 | > 30 | > 30 | > 30 | > 30 | > 30 |  | > 30 |  | > 30 | > 30 | 
16 | O=C(Nc1ccc(C(F)(F)F)c(Cl)c1)c1nc2ccccc2n1CCc1ccncc1 | > 30 | > 30 | < 30 | > 10000 | > 30 | > 30 | > 30 | > 10000 | > 10000 | > 30 | > 30 | > 30 | > 30 | > 30 | > 30 |  | > 30 |  | > 30 | > 30 | 
